Where “and” joins values, the source holds several entries; their conditions need not be identical. Identical values can stand only once.
Test system: 186277-243-T-J2-PDC complex spheroid growth
Assay: Anticancer human tumor 186277-243-T-J2-PDC patient-derived colon adenocarcinoma cell line growth inhibition [AhR]
Conditions: for viability, T/C: stronger effect = lower value; active = viability on the fitted dose curve at most 10% of control; inactive = the rest
Procedure, shortened: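 Spheroids combined tumor cells with HUVEC endothelial cells and human MSCs as stroma. AhR antagonists were paired with standard or investigational drugs, each dosed in half-log steps down from near clinical Cmax, or from 10 microM where Cmax was unknown.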

[1] = curve of first compound, second compound 0.1 µM
[2] = curve of first compound, second compound 0.316 µM
[3] = curve of first compound, second compound 1 µM
[4] = curve of first compound, second compound 3.16 µM
[5] = curve of first compound, second compound 10 µM
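Note: spheroids exposed to compounds for seven days before the viability read.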
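Throughout, for viability, T/C: luminescent signal used as a stand-in for viable cell amount; 100% = DMSO vehicle control wells.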

COc1cccc2c1C(=O)c1c(O)c3c(c(O)c1C2=O)CC(O)(C(=O)CO)CC3OC1CC(N)C(O)C(C)O1 (stereo not drawn)
inactive: viability, T/C (compound 0.0316 µM) 111% and 154% and 44.9% | viability, T/C (compound 0.1 µM) 74.9% and 144% and 30.5%
active: viability, T/C (compound 1 µM) 0.9% and 5.52% and 0.26% | viability, T/C (compound 3.16 µM) 0.36% and 0.59% and 0.22% | viability, T/C (compound 10 µM) 0.28% and 1.4% and 0.25%

Nc1ncn(C2CC(O)C(CO)S2)c(=O)n1 (stereo not drawn) + Cc1cncc(-c2nc(NCCc3c[nH]c4ccccc34)c3ncn(C(C)C)c3n2)c1
inactive: viability, T/C (second compound 0.1 µM, first compound 0.000949 µM) 102% | viability, T/C (second compound 0.1 µM, first compound 0.003 µM) 91.9% | viability, T/C (second compound 0.1 µM, first compound 0.00949 µM) 95.1% | viability, T/C (second compound 0.1 µM, first compound 0.03 µM) 129% | viability, T/C (second compound 0.1 µM, first compound 0.0949 µM) 148% | viability, T/C (second compound 0.1 µM, first compound 0.3 µM) 104% | viability, T/C (second compound 0.316 µM, first compound 0.000949 µM) 89.5% | viability, T/C (second compound 0.316 µM, first compound 0.003 µM) 89.4% | viability, T/C (second compound 0.316 µM, first compound 0.00949 µM) 104% | viability, T/C (second compound 0.316 µM, first compound 0.03 µM) 109% | viability, T/C (second compound 0.316 µM, first compound 0.0949 µM) 140% | viability, T/C (second compound 0.316 µM, first compound 0.3 µM) 105% | viability, T/C (second compound 1 µM, first compound 0.000949 µM) 98.2% | viability, T/C (second compound 1 µM, first compound 0.003 µM) 107% | viability, T/C (second compound 1 µM, first compound 0.00949 µM) 107% | viability, T/C (second compound 1 µM, first compound 0.03 µM) 140% | viability, T/C (second compound 1 µM, first compound 0.0949 µM) 140% | viability, T/C (second compound 1 µM, first compound 0.3 µM) 115% | viability, T/C (second compound 3.16 µM, first compound 0.000949 µM) 92.2% | viability, T/C (second compound 3.16 µM, first compound 0.003 µM) 89.9% | viability, T/C (second compound 3.16 µM, first compound 0.00949 µM) 90% | viability, T/C (second compound 3.16 µM, first compound 0.03 µM) 106% | viability, T/C (second compound 3.16 µM, first compound 0.0949 µM) 121% | viability, T/C (second compound 3.16 µM, first compound 0.3 µM) 98.4% | viability, T/C (second compound 10 µM, first compound 0.000949 µM) 79.5% | viability, T/C (second compound 10 µM, first compound 0.003 µM) 80.2% | viability, T/C (second compound 10 µM, first compound 0.00949 µM) 71.8% | viability, T/C (second compound 10 µM, first compound 0.03 µM) 76.9% | viability, T/C (second compound 10 µM, first compound 0.0949 µM) 70.9% | viability, T/C (second compound 10 µM, first compound 0.3 µM) 63.3%
> 300 nM: IC50 [1] | IC50 [2] | IC50 [3] | IC50 [4] | IC50 [5]

COc1cc(C2c3cc4c(cc3C(OC3OC5COC(C)OC5C(O)C3O)C3COC(=O)C23)OCO4)cc(OC)c1O (stereo not drawn)
inactive: viability, T/C (compound 0.0316 µM) 97.2% and 86.2% and 92.7% | viability, T/C (compound 0.1 µM) 126% and 88.1% and 97.8% | viability, T/C (compound 0.316 µM) 118% and 44.4% and 142% | viability, T/C (compound 1 µM) 58.8% and 22.6% and 97.1% | viability, T/C (compound 3.16 µM) 51.1% and 17.5% and 85.7% | viability, T/C (compound 10 µM) 25.6% and 10% and 46.4%

CC1COCCN1c1cc(-c2ccnn2C)c2ccnc(-c3ccn[nH]3)c2n1 (stereo not drawn) + CC(CO)NC(=O)c1cc(-c2ccc(Cl)cc2)nn(-c2cnn(C)c2)c1=O
20.4 nM: IC50 [3]
active: viability, T/C (second compound 0.1 µM, first compound 0.1 µM) 7.53% | viability, T/C (second compound 0.1 µM, first compound 0.316 µM) 3.44% | viability, T/C (second compound 0.1 µM, first compound 1 µM) 2.42% | viability, T/C (second compound 0.316 µM, first compound 0.1 µM) 6.69% | viability, T/C (second compound 0.316 µM, first compound 0.316 µM) 2.84% | viability, T/C (second compound 0.316 µM, first compound 1 µM) 2.25% | viability, T/C (second compound 1 µM, first compound 0.1 µM) 6.17% | viability, T/C (second compound 1 µM, first compound 0.316 µM) 3.4% | viability, T/C (second compound 1 µM, first compound 1 µM) 2.51% | viability, T/C (second compound 3.16 µM, first compound 0.1 µM) 6.02% | viability, T/C (second compound 3.16 µM, first compound 0.316 µM) 3.47% | viability, T/C (second compound 3.16 µM, first compound 1 µM) 2.6% | viability, T/C (second compound 10 µM, first compound 0.1 µM) 6.38% | viability, T/C (second compound 10 µM, first compound 0.316 µM) 3.92% | viability, T/C (second compound 10 µM, first compound 1 µM) 2.78%
23.6 nM: IC50 [2]
24.3 nM: IC50 [1]
19.2 nM: IC50 [4]
inactive: viability, T/C (second compound 0.1 µM, first compound 0.00316 µM) 100% | viability, T/C (second compound 0.1 µM, first compound 0.01 µM) 89.9% | viability, T/C (second compound 0.1 µM, first compound 0.0316 µM) 38.1% | viability, T/C (second compound 0.316 µM, first compound 0.00316 µM) 91% | viability, T/C (second compound 0.316 µM, first compound 0.01 µM) 86.3% | viability, T/C (second compound 0.316 µM, first compound 0.0316 µM) 37.5% | viability, T/C (second compound 1 µM, first compound 0.00316 µM) 103% | viability, T/C (second compound 1 µM, first compound 0.01 µM) 77% | viability, T/C (second compound 1 µM, first compound 0.0316 µM) 34.2% | viability, T/C (second compound 3.16 µM, first compound 0.00316 µM) 82.3% | viability, T/C (second compound 3.16 µM, first compound 0.01 µM) 84.8% | viability, T/C (second compound 3.16 µM, first compound 0.0316 µM) 24.2% | viability, T/C (second compound 10 µM, first compound 0.00316 µM) 79.3% | viability, T/C (second compound 10 µM, first compound 0.01 µM) 54.1% | viability, T/C (second compound 10 µM, first compound 0.0316 µM) 18.2%
11.4 nM: IC50 [5]

Nc1ccccc1NC(=O)c1ccc(CNC(=O)OCc2cccnc2)cc1
inactive: viability, T/C (compound 0.0316 µM) 88.5% and 90.8% and 86.3% | viability, T/C (compound 0.1 µM) 93.2% and 91.9% and 87.4% | viability, T/C (compound 0.316 µM) 76.2% and 99.5% and 68.8% | viability, T/C (compound 1 µM) 86.5% and 92.2% and 37% | viability, T/C (compound 3.16 µM) 68.6% and 79.5% and 12.6%
8.95% and 16.8% and 0.82%: viability, T/C (compound 10 µM)
4530 nM and 5440 nM and 639 nM: IC50 (curve of compound)

Source: PubChem BioAssay AID1918991 (Molecular Pharmacology Branch, DTP, NCI, 2023)
